# PMC4503722, “Novel Phenotypic Outcomes Identified for a Public Collection of Approved Drugs from a Publicly Accessible Panel of Assays” (PLoS ONE, 2015)
# System: INS-1E cells
# Assay: cells
# Assay type: cell-based, rat
# Conditions: 5 mM glucose; for 5mMGluc_INS1E SecretionMod IC50/EC50: assay number 8
# 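Further: secreted insulin quantified by homogeneous immunoassay.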
Structure (SMILES),5mMGluc_INS1E SecretionMod IC50/EC50 [µM],"IC50/EC50, 5mMGluc_INS1E SecretionMod (assay number 8) [µM]"
CN(C)CC/C=C1\c2ccccc2Sc2ccc(Cl)cc21 [NCGC00013683-06],> 33.33,
CN(C)CC[C@H](c1ccc(Cl)cc1)c1ccccn1 [NCGC00015227-08],17.749,
COc1ccc(Cl)cc1C(=O)NCCc1ccc(S(=O)(=O)NC(=O)NC2CCCCC2)cc1 [NCGC00015467-20],,0.00808
CN1CCN2c3ccccc3Cc3ccccc3C2C1 (stereo not shown) [NCGC00015656-12],> 11.11,
N=c1nc(N2CCCCC2)cc(N)n1O [NCGC00015673-13],,> 33.33
CC(CCc1ccccc1)NC(C)C(O)c1ccc(O)cc1 (stereo not shown) [NCGC00015716-09],14.4759,
COc1ccc(CN(CCN(C)C)c2ccccn2)cc1 [NCGC00015822-15],,15.3614
CN(C)CCCOc1nn(Cc2ccccc2)c2ccccc12.Cl [NCGC00016397-04],,21.3864
CC(=O)c1ccc2c(c1)N(CCCN(C)C)c1ccccc1S2 [NCGC00016634-04],11.3835,
CCCCOc1cc(C(=O)OCCN(CC)CC)ccc1N [NCGC00016667-04],15.5055,
O=C(CCCN1CCC(O)(c2ccc(Br)cc2)CC1)c1ccc(F)cc1 [NCGC00016692-05],> 33.33,
COc1ccc2c(c1)C(=O)N(CCc1ccc(S(=O)(=O)NC(=O)NC3CCCCC3)cc1)C(=O)C2(C)C [NCGC00016819-05],0.2299,
CCC1=C(C)CN(C(=O)NCCc2ccc(S(=O)(=O)NC(=O)NC3CCC(C)CC3)cc2)C1=O (stereo not shown) [NCGC00016960-07],0.00406,
